# Data published in US8658664B2 (The Board of Regents of the University of Texas System, priority 2008, dated 2014).
# Structures can show the parent of a compound that is named as a salt.
# Key:
# [1] = test system: basal cell carcinomas (BCC); assay: Skin tumor shrinkage in mouse BCC models, topical application; format: in vivo; details: topical application for 21 days; K14 Ptch1 knockout and K14 SmoM2-YFP mice
# Procedure: Quantitative analysis was performed to calculate the percentage of tumor area in a given tissue area. Eight areas were used to measure the average value from each group, which was compared for the efficacy of the drugs.
# hedgehog signaling = assay: Motor neuron differentiation and embryonic body formation from embryonic stem cells; format: cell-based
# From the text: To test stem cell functions, motor neuron differentiation experiments were used. First embryonic stem cells were used to form stem cell sphere (embryonic bodies, EB). In the presence of retinoic acid (RA) and sonic hedgehog or SMO agonist purmorphamine (AG), several types of neurons can be differentiated. These neurons can be distinguished by distinct markers. Hb9 is regarded as a marker for motor neuron (FIG. 6A).
# [2] = test system: pancreatic cancer cell line ASPC-1; assay: Orthotopic mouse model for pancreatic cancer metastasis; format: in vivo; details: ASPC-1-GFP injected into pancreas of nude mice; 20 mice per group; saline control 60%
# Procedure: An orthotopic mouse model for pancreatic cancer metastasis was established to test the effect of Cyc-T on pancreatic cancer. Green flourescent protein (GFP) was expressed in pancreatic cancer cell line ASPC-1, and then injected into pancreas of nude mice.
# The effect of cyc-T was tested in the mouse model for pancreatic cancer metastasis described supra.
smiles,measurement,setting,value
CC1=C2CC3C(CC=C4CC(O)CCC43C)C2CCC12OC1CC(C)CNC1C2C (stereo not shown) [Cyclopamine tartrate],efficacy on hedgehog signaling-mediated skin tumors (percentage of tumor area in tissue area),[1],very effective inhibitor for hedgehog signaling-mediated tumors
same,inhibition of hedgehog signaling / motor neuron differentiation (Hb9 marker),"hedgehog signaling; embryonic bodies with retinoic acid and sonic hedgehog or purmorphamine, compared with KAAD-cyclopamine",as effective as KAAD-cyclopamine
same,number and size of embryonic bodies (EBs),"hedgehog signaling; embryonic stem cell spheres, DAPI fluorescent microscopy",reduces the number and the size of EBs
same,frequency of tumor metastasis,[2],32%
